Assay results as given in ChEMBL document CHEMBL2157914, “Synthesis, anti-inflammatory and antimicrobial evaluation of novel 1-acetyl-3,5-diaryl-4,5-dihydro (1H) pyrazole derivatives bearing urea, thiourea and sulfonamide moieties” (2012).
Converted amounts (≈) assume the structure as drawn. The source made the active and inactive calls. The calls are words filed in the database; no cut-off is given here.

Each molecule was assayed on Aspergillus flavus (assay: Antifungal activity against Aspergillus flavus MTCC 277 up to 200 ug/mL after 2 to 3 days by agar well diffusion method). Conditions: not given.
Assay type: functional, organism-based
In the case of `COc1ccc(C2=NN(C(C)=O)C(c3ccc(NC(=O)Nc4cccc(Cl)c4F)cc3)C2)cc1OC` (stereo not given), the Activity is reported as “inactive”. For `COc1ccc(C2=NN(C(C)=O)C(c3ccc(NC(=O)Nc4cc(F)ccc4C)cc3)C2)cc1OC` (stereo not given), the Activity was “inactive”. In the case of `COc1ccc(C2=NN(C(C)=O)C(c3ccc(NC(=S)Nc4ccc(F)cc4)cc3)C2)cc1OC` (stereo not given), the Activity is reported as “inactive”. With `COc1ccc(C2=NN(C(C)=O)C(c3ccc(NS(=O)(=O)c4ccc(OC)c(OC)c4)cc3)C2)cc1OC` (stereo not given) the Activity was “inactive”. For `COc1ccccc1NC(=S)Nc1ccc(C2CC(c3ccc(OC)c(OC)c3)=NN2C(C)=O)cc1` (stereo not given), the Activity was “inactive”. With `COc1ccc(C(=O)/C=C/c2ccc([N+](=O)[O-])cc2)cc1OC` the Activity was “inactive”.

The molecules below were run on Salmonella typhimurium (assay: Antibacterial activity against Salmonella typhimurium MTCC 98 up to 200 ug/mL after 24 hrs by agar well diffusion method). Conditions: Salmonella enterica subsp. enterica serovar Typhimurium.
Assay type: functional, organism-based
For `COc1ccc(C2=NN(C(C)=O)C(c3ccc(NC(=O)Nc4cc(F)ccc4C)cc3)C2)cc1OC` (stereo not given), the Activity was “inactive”. In the case of `COc1ccc(C2=NN(C(C)=O)C(c3ccc(NC(=S)Nc4ccc(F)cc4)cc3)C2)cc1OC` (stereo not given), the Activity is reported as “inactive”. With `COc1ccccc1NC(=S)Nc1ccc(C2CC(c3ccc(OC)c(OC)c3)=NN2C(C)=O)cc1` (stereo not given) the Activity was “inactive”.

These molecules were tested on Candida albicans (assay: Antifungal activity against Candida albicans MTCC 227 after 2 to 3 days by agar well diffusion method). Conditions: not given.
Assay type: functional
`COc1ccc(C2=NN(C(C)=O)C(c3ccc(NC(=O)Nc4cccc(Cl)c4F)cc3)C2)cc1OC` (stereo not given) showed an MIC of 90 µg/mL (≈ 176 µM). Work on `COc1ccccc1NC(=S)Nc1ccc(C2CC(c3ccc(OC)c(OC)c3)=NN2C(C)=O)cc1` (stereo not given) yielded an MIC of 90 µg/mL (≈ 178 µM). `COc1ccc(C(=O)/C=C/c2ccc([N+](=O)[O-])cc2)cc1OC` showed an MIC of 90 µg/mL (≈ 287 µM).

Each molecule was assayed on THP-1 (assay: Antiinflammatory activity in human THP1 cells assessed as inhibition of LPS-stimulated IL-6 production at 10 uM incubated for 30 mins prior to LPS-challenge measured 24 hrs post LPS-challenge by ELISA). Conditions: not given.
Assay type: functional
With `COc1ccc(C2=NN(C(C)=O)C(c3ccc(NC(=O)Nc4cccc(Cl)c4F)cc3)C2)cc1OC` (stereo not given) the inhibition at 10 µM was 76%. `COc1ccc(C2=NN(C(C)=O)C(c3ccc(NC(=O)Nc4cc(F)ccc4C)cc3)C2)cc1OC` (stereo not given) showed an inhibition at 10 µM of 31%. In the case of `COc1ccc(C2=NN(C(C)=O)C(c3ccc(NC(=S)Nc4ccc(F)cc4)cc3)C2)cc1OC` (stereo not given), the inhibition at 10 µM is reported as 10%. Molecule `COc1ccc(C2=NN(C(C)=O)C(c3ccc(NS(=O)(=O)c4ccc(OC)c(OC)c4)cc3)C2)cc1OC` (stereo not given) has an inhibition at 10 µM of 0%. Work on `COc1ccccc1NC(=S)Nc1ccc(C2CC(c3ccc(OC)c(OC)c3)=NN2C(C)=O)cc1` (stereo not given) yielded an inhibition at 10 µM of 0%. In the case of `COc1ccc(C(=O)/C=C/c2ccc([N+](=O)[O-])cc2)cc1OC`, the inhibition at 10 µM is reported as 0%.

Each molecule was assayed on Bacillus subtilis (assay: Antibacterial activity against Bacillus subtilis MTCC 441 after 24 hrs by agar well diffusion method). Conditions: MTCC 441, 24 h.
Assay type: functional
Work on `COc1ccc(C2=NN(C(C)=O)C(c3ccc(NC(=O)Nc4cccc(Cl)c4F)cc3)C2)cc1OC` (stereo not given) yielded an MIC of 90 µg/mL (≈ 176 µM). `COc1ccc(C2=NN(C(C)=O)C(c3ccc(NS(=O)(=O)c4ccc(OC)c(OC)c4)cc3)C2)cc1OC` (stereo not given) was tested, and the MIC was 90 µg/mL (≈ 167 µM). Molecule `COc1ccc(C(=O)/C=C/c2ccc([N+](=O)[O-])cc2)cc1OC` has an MIC of 90 µg/mL (≈ 287 µM).

Each molecule was assayed on Staphylococcus aureus (assay: Antibacterial activity against Staphylococcus aureus MTCC 96 after 24 hrs by agar well diffusion method). Conditions: MTCC 96, 24 h.
Assay type: functional
With `COc1ccc(C2=NN(C(C)=O)C(c3ccc(NC(=O)Nc4cccc(Cl)c4F)cc3)C2)cc1OC` (stereo not given) the MIC was 90 µg/mL (≈ 176 µM). In the case of `COc1ccc(C2=NN(C(C)=O)C(c3ccc(NC(=S)Nc4ccc(F)cc4)cc3)C2)cc1OC` (stereo not given), the MIC is reported as 80 µg/mL (≈ 162 µM).

Each molecule was assayed on Staphylococcus aureus (assay: Antibacterial activity against Staphylococcus aureus MTCC 96 up to 200 ug/mL after 24 hrs by agar well diffusion method). Conditions: not given.
Assay type: functional, organism-based
In the case of `COc1ccc(C2=NN(C(C)=O)C(c3ccc(NC(=O)Nc4cc(F)ccc4C)cc3)C2)cc1OC` (stereo not given), the Activity is reported as “inactive”. In the case of `COc1ccc(C2=NN(C(C)=O)C(c3ccc(NS(=O)(=O)c4ccc(OC)c(OC)c4)cc3)C2)cc1OC` (stereo not given), the Activity is reported as “inactive”. `COc1ccccc1NC(=S)Nc1ccc(C2CC(c3ccc(OC)c(OC)c3)=NN2C(C)=O)cc1` (stereo not given) was tested, and the Activity was “inactive”. `COc1ccc(C(=O)/C=C/c2ccc([N+](=O)[O-])cc2)cc1OC` was tested, and the Activity was “inactive”.

The molecules below were run on Aspergillus niger (assay: Antifungal activity against Aspergillus niger MTCC 281 up to 200 ug/mL after 2 to 3 days by agar well diffusion method). Conditions: not given.
Assay type: functional, organism-based
`COc1ccc(C2=NN(C(C)=O)C(c3ccc(NC(=O)Nc4cccc(Cl)c4F)cc3)C2)cc1OC` (stereo not given) was tested, and the Activity was “inactive”. With `COc1ccc(C2=NN(C(C)=O)C(c3ccc(NC(=O)Nc4cc(F)ccc4C)cc3)C2)cc1OC` (stereo not given) the Activity was “inactive”. `COc1ccc(C2=NN(C(C)=O)C(c3ccc(NC(=S)Nc4ccc(F)cc4)cc3)C2)cc1OC` (stereo not given) was tested, and the Activity was “inactive”. `COc1ccc(C2=NN(C(C)=O)C(c3ccc(NS(=O)(=O)c4ccc(OC)c(OC)c4)cc3)C2)cc1OC` (stereo not given) was tested, and the Activity was “inactive”. With `COc1ccccc1NC(=S)Nc1ccc(C2CC(c3ccc(OC)c(OC)c3)=NN2C(C)=O)cc1` (stereo not given) the Activity was “inactive”. For `COc1ccc(C(=O)/C=C/c2ccc([N+](=O)[O-])cc2)cc1OC`, the Activity was “inactive”.

The molecules below were run on Escherichia coli (assay: Antibacterial activity against Escherichia coli MTCC 443 after 24 hrs by agar well diffusion method). Conditions: MTCC 443, 24 h.
Assay type: functional
Molecule `COc1ccc(C2=NN(C(C)=O)C(c3ccc(NC(=O)Nc4cccc(Cl)c4F)cc3)C2)cc1OC` (stereo not given) has an MIC of 90 µg/mL (≈ 176 µM). Work on `COc1ccc(C2=NN(C(C)=O)C(c3ccc(NC(=O)Nc4cc(F)ccc4C)cc3)C2)cc1OC` (stereo not given) yielded an MIC of 90 µg/mL (≈ 183 µM). In the case of `COc1ccc(C2=NN(C(C)=O)C(c3ccc(NC(=S)Nc4ccc(F)cc4)cc3)C2)cc1OC` (stereo not given), the MIC is reported as 80 µg/mL (≈ 162 µM). Work on `COc1ccc(C2=NN(C(C)=O)C(c3ccc(NS(=O)(=O)c4ccc(OC)c(OC)c4)cc3)C2)cc1OC` (stereo not given) yielded an MIC of 90 µg/mL (≈ 167 µM). With `COc1ccccc1NC(=S)Nc1ccc(C2CC(c3ccc(OC)c(OC)c3)=NN2C(C)=O)cc1` (stereo not given) the MIC was 90 µg/mL (≈ 178 µM). In the case of `COc1ccc(C(=O)/C=C/c2ccc([N+](=O)[O-])cc2)cc1OC`, the MIC is reported as 80 µg/mL (≈ 255 µM).

These molecules were tested on Bacillus subtilis (assay: Antibacterial activity against Bacillus subtilis MTCC 441 up to 200 ug/mL after 24 hrs by agar well diffusion method). Conditions: not given.
Assay type: functional, organism-based
In the case of `COc1ccc(C2=NN(C(C)=O)C(c3ccc(NC(=O)Nc4cc(F)ccc4C)cc3)C2)cc1OC` (stereo not given), the Activity is reported as “inactive”. In the case of `COc1ccc(C2=NN(C(C)=O)C(c3ccc(NC(=S)Nc4ccc(F)cc4)cc3)C2)cc1OC` (stereo not given), the Activity is reported as “inactive”. `COc1ccccc1NC(=S)Nc1ccc(C2CC(c3ccc(OC)c(OC)c3)=NN2C(C)=O)cc1` (stereo not given) was tested, and the Activity was “inactive”.

What follows are molecules tested on Candida albicans (assay: Antifungal activity against Candida albicans MTCC 227 up to 200 ug/mL after 2 to 3 days by agar well diffusion method). Conditions: not given.
Assay type: functional, organism-based
With `COc1ccc(C2=NN(C(C)=O)C(c3ccc(NC(=O)Nc4cc(F)ccc4C)cc3)C2)cc1OC` (stereo not given) the Activity was “inactive”. With `COc1ccc(C2=NN(C(C)=O)C(c3ccc(NC(=S)Nc4ccc(F)cc4)cc3)C2)cc1OC` (stereo not given) the Activity was “inactive”. In the case of `COc1ccc(C2=NN(C(C)=O)C(c3ccc(NS(=O)(=O)c4ccc(OC)c(OC)c4)cc3)C2)cc1OC` (stereo not given), the Activity is reported as “inactive”.

Each molecule was assayed on Fusarium solani (assay: Antifungal activity against Fusarium solani MTCC 350 up to 200 ug/mL after 2 to 3 days by agar well diffusion method). Conditions: not given.
Assay type: functional, organism-based
With `COc1ccc(C2=NN(C(C)=O)C(c3ccc(NC(=O)Nc4cccc(Cl)c4F)cc3)C2)cc1OC` (stereo not given) the Activity was “inactive”. `COc1ccc(C2=NN(C(C)=O)C(c3ccc(NC(=O)Nc4cc(F)ccc4C)cc3)C2)cc1OC` (stereo not given) was tested, and the Activity was “inactive”. In the case of `COc1ccc(C(=O)/C=C/c2ccc([N+](=O)[O-])cc2)cc1OC`, the Activity is reported as “inactive”.

These molecules were tested on THP-1 (assay: Antiinflammatory activity in human THP1 cells assessed as inhibition of LPS-stimulated TNFalpha production at 10 uM incubated for 30 mins prior to LPS-challenge measured 24 hrs post LPS challenge by ELISA). Conditions: not given.
Assay type: functional
`COc1ccc(C2=NN(C(C)=O)C(c3ccc(NC(=O)Nc4cccc(Cl)c4F)cc3)C2)cc1OC` (stereo not given) showed an inhibition at 10 µM of 61%. Work on `COc1ccc(C2=NN(C(C)=O)C(c3ccc(NC(=O)Nc4cc(F)ccc4C)cc3)C2)cc1OC` (stereo not given) yielded an inhibition at 10 µM of 28%. With `COc1ccc(C2=NN(C(C)=O)C(c3ccc(NC(=S)Nc4ccc(F)cc4)cc3)C2)cc1OC` (stereo not given) the inhibition at 10 µM was 3%. Work on `COc1ccc(C2=NN(C(C)=O)C(c3ccc(NS(=O)(=O)c4ccc(OC)c(OC)c4)cc3)C2)cc1OC` (stereo not given) yielded an inhibition at 10 µM of 0%. `COc1ccccc1NC(=S)Nc1ccc(C2CC(c3ccc(OC)c(OC)c3)=NN2C(C)=O)cc1` (stereo not given) gave an inhibition at 10 µM of 0%. Work on `COc1ccc(C(=O)/C=C/c2ccc([N+](=O)[O-])cc2)cc1OC` yielded an inhibition at 10 µM of 0%.

The molecules below were run on Fusarium solani (assay: Antifungal activity against Fusarium solani MTCC 350 after 2 to 3 days by agar well diffusion method). Conditions: not given.
Assay type: functional
For `COc1ccc(C2=NN(C(C)=O)C(c3ccc(NC(=S)Nc4ccc(F)cc4)cc3)C2)cc1OC` (stereo not given), the MIC was 90 µg/mL (≈ 183 µM). Molecule `COc1ccc(C2=NN(C(C)=O)C(c3ccc(NS(=O)(=O)c4ccc(OC)c(OC)c4)cc3)C2)cc1OC` (stereo not given) has an MIC of 90 µg/mL (≈ 167 µM). `COc1ccccc1NC(=S)Nc1ccc(C2CC(c3ccc(OC)c(OC)c3)=NN2C(C)=O)cc1` (stereo not given) was tested, and the MIC was 75 µg/mL (≈ 149 µM).

These molecules were tested on Salmonella typhimurium (assay: Antibacterial activity against Salmonella typhimurium MTCC 98 after 24 hrs by agar well diffusion method). Conditions: Salmonella enterica, MTCC 98, 24 h.
Assay type: functional, Salmonella enterica subsp. enterica serovar Typhimurium
`COc1ccc(C2=NN(C(C)=O)C(c3ccc(NC(=O)Nc4cccc(Cl)c4F)cc3)C2)cc1OC` (stereo not given) was tested, and the MIC was 90 µg/mL (≈ 176 µM). With `COc1ccc(C2=NN(C(C)=O)C(c3ccc(NS(=O)(=O)c4ccc(OC)c(OC)c4)cc3)C2)cc1OC` (stereo not given) the MIC was 90 µg/mL (≈ 167 µM). `COc1ccc(C(=O)/C=C/c2ccc([N+](=O)[O-])cc2)cc1OC` showed an MIC of 90 µg/mL (≈ 287 µM).
